Test results taken from US9936701B2, “Herbicidal compounds” (Syngenta Participations AG, priority 2013, dated 2018).

Legend:
[1] = test system: a variety of test species; assay: Pre-emergence herbicidal activity (glasshouse, sprayed one day after sowing, evaluated after 13 days); type: in vivo; parameters: key: 5=total damage to plant; 0=no damage to plant; conditions: application pre-emergence, rate 1000 g/Ha, scale 0-5
Summary of the method: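 Damage rated 13 days post-treatment on a 0-5 scale, 5 meaning total plant damage. Pots were sprayed pre-emergence, one day after sowing, with an acetone/water-derived aqueous spray containing 0.5% Tween 20. Plants grew under 14 h light, 65% humidity, 24/16 °C, watered twice daily.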

[2] = test system: a variety of test species; assay: Post-emergence herbicidal activity (glasshouse, sprayed after 8 days cultivation, evaluated after 13 days); type: in vivo; parameters: key: 5=total damage to plant; 0=no damage to plant; conditions: rate 1000 g/Ha, scale 0-5
Summary of the method: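 Pot-grown seedlings sprayed 8 days after sowing with active ingredient in acetone/water (50:50) plus 0.5% Tween 20. Glasshouse at 24/16 °C day/night, 14 h light, 65% humidity, watered twice daily. Damage scored after 13 days on a 0–5 scale (5 = total damage, 0 = none).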

| melting point | SMILES | Pre-emergence herbicidal damage score, ABUTH [1] | Pre-emergence herbicidal damage score, ALOMY [1] | Pre-emergence herbicidal damage score, AMARE [1] | Pre-emergence herbicidal damage score, ECHCG [1] | Pre-emergence herbicidal damage score, SETFA [1] | Pre-emergence herbicidal damage score, ZEAMX [1] | ABUTH (Abutilon theophrasti) damage score, application post-emergence [2] | ALOMY (Alopecurus myosuroides) damage score, application post-emergence [2] | AMARE (Amaranthus retroflexus) damage score, application post-emergence [2] | ECHCG (Echinochloa crus-galli) damage score, application post-emergence [2] | SETFA (Setaria faberi) damage score, application post-emergence [2] | ZEAMX (Zea mays) damage score, application post-emergence [2] |
| --- | --- | --- | --- | --- | --- | --- | --- | --- | --- | --- | --- | --- | --- |
| 156 to 158 °C | CC1=C(Cl)C(=O)N(c2cc(C(C)(C)C)on2)C1O (stereo not shown) [A2, 1-(5-tert-butylisoxazol-3-yl)-4-chloro-2-hydroxy-3-methyl-2H-pyrrol-5-one] | 5 | 3 | 5 | 5 | 5 | 3 | 5 | 5 | 5 | 5 | 5 | 5 |
| 169 to 171 °C | CC1=C(Cl)C(=O)N(c2cc(C(C)(C)C(N)=O)on2)C1O (stereo not shown) [A67, 2-[3-(4-chloro-2-hydroxy-3-methyl-5-oxo-2H-pyrrol-1-yl)isoxazol-5-yl]-2-methyl-propanamide] | – | – | – | – | – | – | – | – | – | – | – | – |
| – | CC(C)(C)CNC1=C(Cl)C(=O)N(c2cc(C(C)(C)C)on2)C1O (stereo not shown) [C10] | 0 | 0 | 2 | 0 | 0 | 0 | 0 | 0 | 0 | 0 | 0 | 0 |
| – | COCCNC1=C(Cl)C(=O)N(c2cc(C(C)(C)C)on2)C1O (stereo not shown) [C11] | 4 | 3 | 5 | 4 | 4 | 2 | 5 | 4 | 5 | 5 | 5 | 1 |
| – | CCOCCNC1=C(Cl)C(=O)N(c2cc(C(C)(C)C)on2)C1O (stereo not shown) [C12] | 4 | 1 | 4 | 2 | 3 | 0 | 5 | 3 | 4 | 4 | 4 | 0 |
| – | CC(=O)OC1C(N)=C(Cl)C(=O)N1c1cc(C(C)(C)C)on1 (stereo not shown) [C13] | 5 | 4 | 5 | 5 | 4 | 4 | 5 | 5 | 5 | 5 | 5 | 5 |
| – | COC1=C(C)CN(c2cc(C(C)(C)C)on2)C1=O [D9] | – | 4 | 5 | 4 | 4 | – | – | 5 | 5 | 5 | 5 | – |
| – | COC1=C(OC)C(O)N(c2cc(C(C)(C)C)on2)C1=O (stereo not shown) [F1] | 5 | 3 | 5 | 4 | 4 | 2 | 5 | 4 | 5 | 5 | 5 | 5 |
| – | COC1=C(C)C(=O)N(c2cc(C(C)(C)C)on2)C1O (stereo not shown) [G1] | 5 | 3 | 5 | 5 | 4 | 1 | 5 | 5 | 5 | 5 | 5 | 5 |
| – | COC1=C(C)C(=O)N(c2cc(C)on2)C1O (stereo not shown) [G2] | 5 | 1 | 5 | 3 | 3 | 1 | 3 | 2 | 5 | 2 | 1 | 1 |
| – | COCC(C)(C)c1cc(N2C(=O)C(C)=C(OC)C2O)no1 (stereo not shown) [G3] | 5 | 3 | 5 | 5 | 5 | 4 | 5 | 4 | 3 | 5 | 5 | 5 |
| – | COC1=C(C)C(=O)N(c2noc(C(C)(C)C)c2C#N)C1O (stereo not shown) [G7] | 5 | 4 | 5 | 5 | 5 | 4 | 5 | 5 | 5 | 5 | 5 | 5 |
